This experiment can be described thus: Inhibitory concentration against BaF3 cell line expressed recombinant human CCR3 using the chemotaxis assay.

The structures appear in SMILES notation.

In general, IC50 refers to the concentration that gives 50% inhibition.

For the molecule `O=C(NCC1CCCN(C2CCN(Cc3ccc(Cl)c(Cl)c3)CC2)C1)c1ccc2ncccc2c1` (stereo unspecified) [Quinoline-6-carboxylic acid [1'-(3,4-dichloro-benzyl)-[1,4']bipiperidinyl-3-ylmethyl]-amide], the IC50 is 136 nM.

The record behind these values is BindingDB's records for doi:10.1016/j.bmcl.2005.04.054 (Schering-Plough Research Institute, 2005).
